Where a name gives a salt, the structure may show the parent alone. Read-outs that look alike come from different tables or passages of the source.
Tests used:
[1] = Stability and compatibility of netarsudil dimesylate in boric acid-sodium borate buffer solution; format: physicochemical; settings: commercially available doses mixed in boric acid-sodium borate buffer solution, pH 4.5 to 5.4
[2] = prescribing information and literature reports of Rhopress®, cited from earlier work

| compatibility with netarsudil dimesylate (white precipitate) [1] | Compound | stability in boric acid-sodium borate buffer solution ([2]; pH higher than 5.4) | stability in boric acid-sodium borate buffer solution ([2]; pH lower than 5.4, commercially available dose) |
| --- | --- | --- | --- |
| incompatible | CC(C)NCC(O)COc1ccc(CCOCC2CC2)cc1 (centres unmarked) [betaxolol hydrochloride] | – | – |
| incompatible | CC(C)(C)NCC(O)COc1cccc2c1CCC(=O)N2 (centres unmarked) [carteolol hydrochloride] | – | – |
| incompatible | O=C(O)/C=C\C(=O)O [maleic acid] | – | – |
| incompatible | CC(=O)Oc1c(C)cc(OCC(O)CNC(C)C)c(C)c1C (centres unmarked) [metipranolol hydrochloride] | – | – |
| incompatible | CC(C)(C)NC[C@H](O)COc1nsnc1N1CCOCC1 [timolol maleate] | – | – |
| – | netarsudil dimesylate | unstable and prone to generating precipitate | good in stability |

| Compound | compatibility with netarsudil dimesylate (white precipitate) [1] | stability in boric acid-sodium borate buffer solution ([2]; pH higher than 5.4) | stability in boric acid-sodium borate buffer solution ([2]; pH lower than 5.4, commercially available dose) |
| --- | --- | --- | --- |
| Cl [hydrochloric acid] | incompatible | – | – |

Source: patent US20260027105A1, “COMPOUND MEDICINE COMPOSITION FOR TREATING GLAUCOMA AND USE OF SAME” (Shenyang Pharmaceutical University, priority 2022, published 2026)
